Results: patent US20260013504A1, “HERBICIDAL MIXTURE, HERBICIDAL COMPOSITION, METHOD, USE, AND KITS FOR CONTROLLING UNDESIRABLE VEGETATION” (ADAMA AGAN LTD., priority 2022, published 2026)

Assays:
Assay type in all cases: in vivo
Aegilops tauschii = test: Pot experiment, soil treatment, control of Aegilops tauschii (fresh weight, Colby); settings: mixtures: both AIs at these rates, after 35 days
Excerpt: (§1) Referring to an article of Colby, S. R. i.e., Calculation of the synergistic and antagonistic response of herbicide combinations.
E0 is the theoretical fresh weight survival rate for the mixture of pyroxasulfone and the second herbicide selected from the group consisting of fluorochloridone, aclonifen, diflufenican and terbutryn;
X is the measured fresh weight survival rate for pyroxasulfone used alone at the same dosage as that in the mixture;
Y is the measured fresh weight survival rate for the second herbicide selected from the group consisting of fluorochloridone, aclonifen, diflufenican and terbutryn used alone at the same dosage as that in the mixture;
E is the measured fresh weight survival rate for the mixture of pyroxasulfone and the second herbicide selected from the group consisting of fluorochloridone, aclonifen, diflufenican and terbutryn.
(§2) E0-E value is calculated to evaluate the combined effect of pyroxasulfone and the second herbicide selected from the group consisting of fluorochloridone, aclonifen, diflufenican and terbutryn on the selected weeds.
(§3) In this Example, the herbicidal activity of treatments by a mixture of pyroxasulfone and the second herbicide selected from the group consisting of fluorochloridone, aclonifen, diflufenican and terbutryn for controlling Aegilops tauschii was investigated by a pot experiment. This Example was carried out in accordance with “NY/T 1155.4-2006 Guidelines for Indoor Bioassay Tests of Pesticides, Herbicides Part 4: Activity Determination Tests, Stem and Leaf Spray Method”. • Source of the agrochemicals tested were: • Pyroxasulfone: pyroxasulfone (850g/Kg, WG) from Adama Agan LTD. • Fluorochloridone: fluorochloridone (250 g/L, EC) from Adama Agan LTD. • Aclonifen: aclonifen (600 g/L, SC) from Adama Agan LTD. • Diflufenican: diflufenican (50g/Kg, WP) from Bayer. • Terbutryn: terbutryn (50g/Kg, SC) from Zhejiang Zhongshan Chemical Industry Group Co., Ltd. • Cultivation of test materials: The test soil was formed by mixing the 20 cm layer loam on the ground surface and the culture medium in a ratio of 3:1 as cultivation soil. Weeds were cultivated in an artificial climate chamber. The daytime and nighttime temperatures were set at 22° C. and 19° C., respectively, and the illumination was set at daytime: dark time 12h: 12h.
(§4) A certain amount of Aegilops tauschii seeds were sown in a plastic pot with a diameter of 9 cm, covering with 1-2 mm soil, and putting them in an enamel dish filled with water. The bottom infiltration method was used to water them, the agrochemicals tested in this Example were applied on the second day after sowing Aegilops tauschii seeds.
(§5) Spraying treatment: ASS-4 automatic control spraying system with a fan-shaped nozzle was used indoors to spray the agrochemicals, the running speed was adjusted based on nozzle pressure, flow rate, etc. to spray 50 mL of liquid of agrochemicals on the actual spray area of 1.1 m2 (equivalent to 30 liters per mu), arranging the plastic pots to be processed on the spraying table evenly, and spraying evenly. The spraying pressure was 0.35 MPa, and the flow rate of the fan-shaped nozzle was 800 mL/min, spraying in order from low dosage to high dosage. Each treatment was repeated 3 times. After spraying, the plastic pots were dried for one day, placed in an artificial climate chamber, and watered regularly to keep moist.
(§6) Weed investigation method and time: after applying the agrochemicals, the symptoms of weed damage (such as growth inhibition, chlorosis, deformity, etc.) were recorded in detail. After 35 days, the fresh weight of aerial part of the weeds in each treatment was weighed, and the measured fresh weight inhibition rate and the measured fresh weight survival rate for each treatment were calculated according to the following equations: […]

Lolium multiflorum Lamk = test: Pot experiment, soil treatment, control of Lolium multiflorum Lamk (fresh weight, Colby); settings: mixtures: both AIs at these rates, after 35 days
Description: as §1, §2, §3, §4, §5, §6
Example 2 was conducted in substantially the same way as Example 1, except that Lolium multiflorum Lamk was used instead of Aegilops tauschii.

Bromus japonicus = test: Pot experiment, soil treatment, control of Bromus japonicus (fresh weight, Colby); settings: mixtures: both AIs at these rates, after 35 days
Description: as §1, §2, §3, §4, §5, §6
Example 3 was conducted in substantially the same way as Example 1, except that Bromus japonicus was used instead of Aegilops tauschii.

Galium aparine = test: Pot experiment, soil treatment, control of Galium aparine (fresh weight, Colby)
Description: as §1, §2, §3, §4, §5, §6
Example 4 was conducted substantially the same way as Example 1, except that Galium aparine was used instead of Aegilops tauschii.

Lithospermum arvense = test: Pot experiment, soil treatment, control of Lithospermum arvense (fresh weight, Colby)
Description: as §1, §2, §3, §4, §5, §6
Example 5 was conducted substantially the same way as Example 1, except that Lithospermum arvense was used instead of Aegilops tauschii.

Solanum nigrum = test: Pot experiment (glass greenhouse), soil treatment, control of Solanum nigrum (fresh weight, Colby)
Description: as §1, §2, §3, §4, §5, §6
Example 6 was substantially conducted in the same as Example 1, except that (1) Solanum nigrum was used instead of Aegilops tauschii, (2) in “Cultivation of test materials” part, Solanum nigrum was cultivated in a glass greenhouse instead of an artificial climate chamber at a temperature of 25 to 33° C. with a natural illumination, and (3) in “Spraying treatment” part, after spraying and drying, the plastic pots were placed in a glass greenhouse instead of an artificial climate chamber.

[1] = g ai/ha: pyroxasulfone 11.25, fluorochloridone 31.25, aclonifen 150, diflufenican 14.0625, terbutryn 140.625
[2] = g ai/ha: pyroxasulfone 22.5, fluorochloridone 62.5, aclonifen 300, diflufenican 28.125, terbutryn 281.25
[3] = g ai/ha: pyroxasulfone 45, fluorochloridone 125, aclonifen 600, diflufenican 56.25, terbutryn 562.5
[4] = g ai/ha: pyroxasulfone 90, fluorochloridone 250, aclonifen 1200, diflufenican 112.5, terbutryn 1125
[5] = g ai/ha: pyroxasulfone 180, fluorochloridone 500, aclonifen 2400, diflufenican 225, terbutryn 2250
[6] = g ai/ha: pyroxasulfone 360, fluorochloridone 1000, aclonifen 4800, diflufenican 450, terbutryn 4500

3-chloro-4-(chloromethyl)-1-(3-(trifluoromethyl)phenyl)-2-pyrrolidione [fluorochloridone]
Measured fresh weight inhibition rate (%) (Aegilops tauschii; [1]): 0.0% | Measured fresh weight survival rate (%) - E (Aegilops tauschii; [1]): 100.0% | Measured fresh weight inhibition rate (%) (Aegilops tauschii; [2]): 7.9% | Measured fresh weight survival rate (%) - E (Aegilops tauschii; [2]): 92.1% | Measured fresh weight inhibition rate (%) (Aegilops tauschii; [3]): 11.0% | Measured fresh weight survival rate (%) - E (Aegilops tauschii; [3]): 89.0% | Measured fresh weight inhibition rate (%) (Aegilops tauschii; [4]): 49.4% | Measured fresh weight survival rate (%) - E (Aegilops tauschii; [4]): 50.6% | Measured fresh weight inhibition rate (%) (Aegilops tauschii; [5]): 79.3% | Measured fresh weight survival rate (%) - E (Aegilops tauschii; [5]): 20.7% | Measured fresh weight inhibition rate (%) (Aegilops tauschii; [6]): 93.9% | Measured fresh weight survival rate (%) - E (Aegilops tauschii; [6]): 6.1% | Measured fresh weight inhibition rate (%) (Lolium multiflorum Lamk; [1]): 93.2% | Measured fresh weight survival rate (%) - E (Lolium multiflorum Lamk; [1]): 6.8% | Measured fresh weight inhibition rate (%) (Lolium multiflorum Lamk; [2]): 96.4% | Measured fresh weight survival rate (%) - E (Lolium multiflorum Lamk; [2]): 3.6% | Measured fresh weight inhibition rate (%) (Lolium multiflorum Lamk; [3]): 98.4% | Measured fresh weight survival rate (%) - E (Lolium multiflorum Lamk; [3]): 1.6% | Measured fresh weight inhibition rate (%) (Lolium multiflorum Lamk; [4]): 100.0% | Measured fresh weight survival rate (%) - E (Lolium multiflorum Lamk; [4]): 0.0% | Measured fresh weight inhibition rate (%) (Lolium multiflorum Lamk; [5]): 100.0% | Measured fresh weight survival rate (%) - E (Lolium multiflorum Lamk; [5]): 0.0% | Measured fresh weight inhibition rate (%) (Lolium multiflorum Lamk; [6]): 100.0% | Measured fresh weight survival rate (%) - E (Lolium multiflorum Lamk; [6]): 0.0% | Measured fresh weight inhibition rate (%) (Bromus japonicus; [1]): 94.8% | Measured fresh weight survival rate (%) - E (Bromus japonicus; [1]): 5.2% | Measured fresh weight inhibition rate (%) (Bromus japonicus; [2]): 96.9% | Measured fresh weight survival rate (%) - E (Bromus japonicus; [2]): 3.1% | Measured fresh weight inhibition rate (%) (Bromus japonicus; [3]): 100.0% | Measured fresh weight survival rate (%) - E (Bromus japonicus; [3]): 0.0% | Measured fresh weight inhibition rate (%) (Bromus japonicus; [4]): 100.0% | Measured fresh weight survival rate (%) - E (Bromus japonicus; [4]): 0.0% | Measured fresh weight inhibition rate (%) (Bromus japonicus; [5]): 100.0% | Measured fresh weight survival rate (%) - E (Bromus japonicus; [5]): 0.0% | Measured fresh weight inhibition rate (%) (Galium aparine; 31.25 g ai/ha): 63.0% | Measured fresh weight survival rate (%) - E (Galium aparine; 31.25 g ai/ha): 37.0% | Measured fresh weight inhibition rate (%) (Galium aparine; 62.5 g ai/ha): 84.9% | Measured fresh weight survival rate (%) - E (Galium aparine; 62.5 g ai/ha): 15.1% | Measured fresh weight inhibition rate (%) (Galium aparine; 125 g ai/ha): 93.2% | Measured fresh weight survival rate (%) - E (Galium aparine; 125 g ai/ha): 6.8% | Measured fresh weight inhibition rate (%) (Galium aparine; 250 g ai/ha): 95.9% | Measured fresh weight survival rate (%) - E (Galium aparine; 250 g ai/ha): 4.1% | Measured fresh weight inhibition rate (%) (Galium aparine; 500 g ai/ha): 100.0% | Measured fresh weight survival rate (%) - E (Galium aparine; 500 g ai/ha): 0.0% | Measured fresh weight inhibition rate (%) (Lithospermum arvense; 31.25 g ai/ha): 47.8% | Measured fresh weight survival rate (%) - E (Lithospermum arvense; 31.25 g ai/ha): 52.2% | Measured fresh weight inhibition rate (%) (Lithospermum arvense; 62.5 g ai/ha): 97.1% | Measured fresh weight survival rate (%) - E (Lithospermum arvense; 62.5 g ai/ha): 2.9% | Measured fresh weight inhibition rate (%) (Lithospermum arvense; 125 g ai/ha): 98.6% | Measured fresh weight survival rate (%) - E (Lithospermum arvense; 125 g ai/ha): 1.4% | Measured fresh weight inhibition rate (%) (Lithospermum arvense; 250 g ai/ha): 100.0% | Measured fresh weight survival rate (%) - E (Lithospermum arvense; 250 g ai/ha): 0.0% | Measured fresh weight inhibition rate (%) (Lithospermum arvense; 500 g ai/ha): 100.0% | Measured fresh weight survival rate (%) - E (Lithospermum arvense; 500 g ai/ha): 0.0% | Measured fresh weight inhibition rate (%) (Solanum nigrum; 31.25 g ai/ha): 18.8% | Measured fresh weight survival rate (%) - E (Solanum nigrum; 31.25 g ai/ha): 81.2% | Measured fresh weight inhibition rate (%) (Solanum nigrum; 62.5 g ai/ha): 32.5% | Measured fresh weight survival rate (%) - E (Solanum nigrum; 62.5 g ai/ha): 67.5% | Measured fresh weight inhibition rate (%) (Solanum nigrum; 125 g ai/ha): 67.1% | Measured fresh weight survival rate (%) - E (Solanum nigrum; 125 g ai/ha): 32.9% | Measured fresh weight inhibition rate (%) (Solanum nigrum; 250 g ai/ha): 99.6% | Measured fresh weight survival rate (%) - E (Solanum nigrum; 250 g ai/ha): 0.4% | Measured fresh weight inhibition rate (%) (Solanum nigrum; 500 g ai/ha): 100.0% | Measured fresh weight survival rate (%) - E (Solanum nigrum; 500 g ai/ha): 0.0%
